Values of other authors, collected in patent US8809627B2, “Plant isoflavone and isoflavanone O-methyltransferase genes” (The Samuel Roberts Noble Foundation, Inc., priority 2006, dated 2014).

Target: T1, MsI7OMT (Medicago sativa, UniProt O24529)
T1 sequence (O24529 1-352): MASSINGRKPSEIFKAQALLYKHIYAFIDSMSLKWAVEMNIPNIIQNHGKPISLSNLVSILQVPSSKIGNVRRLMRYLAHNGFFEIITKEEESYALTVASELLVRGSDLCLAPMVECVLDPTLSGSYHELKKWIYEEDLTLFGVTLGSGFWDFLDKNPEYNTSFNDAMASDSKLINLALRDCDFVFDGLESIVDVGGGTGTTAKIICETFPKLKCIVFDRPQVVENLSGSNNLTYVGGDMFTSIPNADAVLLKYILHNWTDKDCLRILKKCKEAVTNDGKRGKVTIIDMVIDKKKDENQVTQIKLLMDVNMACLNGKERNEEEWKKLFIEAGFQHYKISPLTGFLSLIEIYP
Details: reported by He et al., 1998; cited from earlier work

For `O=c1c(-c2ccc(O)cc2)coc2cc(O)c(O)cc12` [6,7,4′-trihydroxyisoflavone], the “Activity of MsI7OMT relative to the activity with daidzein” value is given as 136 % of the activity with daidzein.
